Assay results published in US12416101B2, “Genetically-encoded macrocyclic peptide libraries bearing a pharmacophore” (THE GOVERNORS OF THE UNIVERSITY OF ALBERTA, priority 2018, dated 2025).
Residues, ends and D or L forms follow the SMILES beside them.

Tests used:
[1] = test system: phage; assay: Toxicity of hydrazines to phage, plaque forming assay; set-up: species or system bacteriophage
Description: In the reaction between phage diketone and hydrazine, some hydrazine derivatives cause toxicity to phage, leading to elimination of >99.999% of infective phage particles in less than 5 minutes (as determined by plaque forming assay). For example, treating phage with 2 mM phenyl hydrazine for 2 minutes decreased the number of infective particles from 10^5 to zero. The source and mechanism of toxicity was not obvious and was difficult to systematize: it depended on the concentration of hydrazine and its nature, as well as some sporadic factors (preparation of solution). Toxicity dependence on concentration of hydrazine was not linear. In many cases, hydrazine was lethal to phage eliminating all infective particles before the reaction was completed. […] Optimal location conditions between phage-diketone and hydrazine derivatives are in the presence of 1-2 mM metal chelator such as EDTA.

[2] = Solubility in water; format: physicochemical

Structure (SMILES)	decrease in the number of infective particles ([1]; 2 to 20 mM phenyl hydrazine in the presence of 1 to 2 mM EDTA, several hours)	number of infective particles after treatment ([1]; phage treated with 2 mM phenyl hydrazine for 2 minutes, starting number 10^5, no chelator)	solubility in water [2]
NNc1ccccc1 [phenyl hydrazine]	did not show any significant decrease	zero	–
CC(C)[C@H](NC(=O)[C@H](CS)NC(=O)[C@H](CCC(N)=O)NC(=O)[C@@H](N)CO)C(=O)N[C@@H](CCCNC(=N)N)C(=O)N[C@@H](CO)C(=O)N[C@@H](CS)C(=O)O [SQCVRSC] (H-SQCVRSC-OH; N-terminus and C-terminus assumed)	–	–	high
